Experimental data taken from patent US6737383B1, “Herbicidal oxadiazolidines” (priority 1999, dated 2004).

Key:
bedstraw = assay: Test B pre/postemergence bedstraw; assay type: in vivo, Galium aparine
Outline: (§1)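 Test chemicals in a non-phytotoxic solvent mixture with surfactant were sprayed preemergence onto planted seeds and postemergence onto plants 2 to 18 cm tall (1- to 4-leaf stage). After twelve to sixteen days in a greenhouse, injury was visually rated against untreated controls from 0 (no effect) to 10 (complete control).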

blackgrass = assay: Test B pre/postemergence blackgrass; assay type: in vivo, Alopecurus myosuroides
Outline: as §1

surinam grass = assay: Test B pre/postemergence surinam grass; assay type: in vivo, Brachiaria decumbens
Outline: as §1

cocklebur = assay: Test B pre/postemergence cocklebur; assay type: in vivo, Xanthium strumarium
Outline: as §1

corn = assay: Test B pre/postemergence corn; assay type: in vivo, Zea mays
Outline: as §1

crabgrass = assay: Test B pre/postemergence crabgrass; assay type: in vivo, Digitaria sanguinalis
Outline: as §1

giant foxtail = assay: Test B pre/postemergence giant foxtail; assay type: in vivo, Setaria faberii
Outline: as §1

rape = assay: Test B pre/postemergence rape; assay type: in vivo, Brassica napus
Outline: as §1

soybean = assay: Test B pre/postemergence soybean; assay type: in vivo, Glycine max
Outline: as §1

sugar beet = assay: Test B pre/postemergence sugar beet; assay type: in vivo, Beta vulgaris
Outline: as §1

velvetleaf = assay: Test B pre/postemergence velvetleaf; assay type: in vivo, Abutilon theophrasti
Outline: as §1

wheat = assay: Test B pre/postemergence wheat; assay type: in vivo, Triticum aestivum
Outline: as §1

purple nutsedge = assay: Test B pre/postemergence purple nutsedge; assay type: in vivo, Cyperus rotundus
Outline: as §1

rice = assay: Test B flood test rice; assay type: in vivo, Oryza sativa
Outline: (§2)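 Read-out is a visual response score from 0 (no effect) to 10 (complete control), assigned by comparison with untreated controls. Treatment was applied at the 2-leaf stage, and plants stayed in the greenhouse for twelve to sixteen days before scoring.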

smallflower flatsedge = assay: Test B flood test smallflower flatsedge; assay type: in vivo, Cyperus difformis
Outline: as §2

duck salad = assay: Test B flood test duck salad; assay type: in vivo, Heteranthera limosa
Outline: as §2

bamyardgrass = assay: Test B flood test barnyardgrass; assay type: in vivo, Echinochloa crus-galli
Outline: as §2

[1] = Preemergence, Rate 62 g/ha, scale of 0 to 10 where 0 is no effect and 10 is complete control
[2] = Preemergence, Rate 250 g/ha, scale of 0 to 10 where 0 is no effect and 10 is complete control
[3] = Preemergence, Rate 500 g/ha, scale of 0 to 10 where 0 is no effect and 10 is complete control
[4] = Rate 62 g/ha, Postemergence, scale 0 to 10 (0 no effect, 10 complete control)
[5] = Rate 125 g/ha, Postemergence, scale of 0 to 10 where 0 is no effect and 10 is complete control
[6] = Rate 125 g/ha, Preemergence, scale of 0 to 10 where 0 is no effect and 10 is complete control
[7] = Rate 250 g/ha, Postemergence, scale of 0 to 10 where 0 is no effect and 10 is complete control
[8] = Rate 500 g/ha, Postemergence, scale 0 to 10, 0 no effect, 10 complete control
[9] = Rate 62 g/ha, headed Pre-emergence (flood test species), scale 0 to 10 (0 no effect, 10 complete control)
[10] = Rate 125 g/ha, Pre-emergence, flood test species, scale 0 to 10 where 0 is no effect and 10 is complete control
[11] = Rate 250 g/ha, Pre-emergence, flood-test species, scale 0 to 10, 0 is no effect, 10 is complete control
[12] = Rate 500 g/ha, Pre-emergence, flood test species, scale 0 to 10 (0 no effect, 10 complete control)

COCn1c(=O)on(C(=O)N(c2ccc(F)cc2)C(C)C)c1=O [Compound 293]
10: Plant response rating, Giant foxtail (giant foxtail; [3]) | Plant response rating, Rape (rape; [3])
2: Bedstraw plant response rating (bedstraw; [5]) | B. signalgrass plant response rating (surinam grass; [1]) | Soybean plant response rating (soybean; [2]) | Plant response rating, Soybean (soybean; [3]) | Soybean plant response rating (soybean; [5]) | Plant response rating, Soybean (soybean; [7]) | Velvetleaf plant response rating (velvetleaf; [5]) | Plant response rating, Velvetleaf (velvetleaf; [7]) | Wheat plant response rating (wheat; [1]) | Wheat plant response rating (wheat; [4])
8: Crabgrass plant response rating (crabgrass; [2]) | Plant response rating, Crabgrass (crabgrass; [3]) | Crabgrass plant response rating (crabgrass; [5]) | Giant foxtail plant response rating (giant foxtail; [5]) | Plant response rating, Giant foxtail (giant foxtail; [7]) | Rape plant response rating (rape; [2]) | Plant response rating, Sugarbeets (sugar beet; [3]) | Plant response rating, Velvetleaf (velvetleaf; [3]) | Wheat plant response rating (wheat; [2]) | Plant response rating, Nutsedge (purple nutsedge; [7])
1: Crabgrass plant response rating (crabgrass; [1]) | Soybean plant response rating (soybean; [4])
9: Bedstraw plant response rating (bedstraw; [8]) | Blackgrass plant response rating (blackgrass; [2]) | Plant response rating, Blackgrass (blackgrass; [3]) | Blackgrass plant response rating (blackgrass; [5]) | Plant response rating, Blackgrass (blackgrass; [7]) | Blackgrass plant response rating (blackgrass; [8]) | Plant response rating, B. signalgrass (surinam grass; [3]) | Corn plant response rating (corn; [2]) | Plant response rating, Crabgrass (crabgrass; [7]) | Giant foxtail plant response rating (giant foxtail; [1]) | Giant foxtail plant response rating (giant foxtail; [2]) | Giant foxtail plant response rating (giant foxtail; [6]) | Plant response rating, Wheat (wheat; [3])
0: Bedstraw plant response rating (bedstraw; [1]) | Bedstraw plant response rating (bedstraw; [2]) | Plant response rating, Bedstraw (bedstraw; [3]) | Bedstraw plant response rating (bedstraw; [4]) | Bedstraw plant response rating (bedstraw; [6]) | B. signalgrass plant response rating (surinam grass; [4]) | B. signalgrass plant response rating (surinam grass; [5]) | Cocklebur plant response rating (cocklebur; [1]) | Cocklebur plant response rating (cocklebur; [2]) | Plant response rating, Cocklebur (cocklebur; [3]) | Cocklebur plant response rating (cocklebur; [4]) | Cocklebur plant response rating (cocklebur; [5]) | Cocklebur plant response rating (cocklebur; [6]) | Plant response rating, Cocklebur (cocklebur; [7]) | Cocklebur plant response rating (cocklebur; [8]) | Corn plant response rating (corn; [1]) | Corn plant response rating (corn; [4]) | Corn plant response rating (corn; [5]) | Corn plant response rating (corn; [6]) | Plant response rating, Corn (corn; [7]) | Rape plant response rating (rape; [1]) | Rape plant response rating (rape; [4]) | Rape plant response rating (rape; [5]) | Plant response rating, Rape (rape; [7]) | Soybean plant response rating (soybean; [1]) | Soybean plant response rating (soybean; [6]) | Sugarbeets plant response rating (sugar beet; [1]) | Sugarbeets plant response rating (sugar beet; [4]) | Sugarbeets plant response rating (sugar beet; [5]) | Velvetleaf plant response rating (velvetleaf; [4]) | Nutsedge plant response rating (purple nutsedge; [1]) | Nutsedge plant response rating (purple nutsedge; [4]) | Nutsedge plant response rating (purple nutsedge; [6]) | Rice plant response rating (rice; [9]) | Rice plant response rating (rice; [10]) | S. Flatsedge plant response rating (smallflower flatsedge; [9]) | S. Flatsedge plant response rating (smallflower flatsedge; [10]) | S. Flatsedge plant response rating (smallflower flatsedge; [11]) | S. Flatsedge plant response rating (smallflower flatsedge; [12]) | Ducksalad plant response rating (duck salad; [9]) | Ducksalad plant response rating (duck salad; [10]) | Ducksalad plant response rating (duck salad; [11]) | Ducksalad plant response rating (duck salad; [12]) | Barnyardgrass plant response rating (bamyardgrass; [9]) | Barnyardgrass plant response rating (bamyardgrass; [10]) | Barnyardgrass plant response rating (bamyardgrass; [11])
7: Blackgrass plant response rating (blackgrass; [1]) | Blackgrass plant response rating (blackgrass; [6]) | B. signalgrass plant response rating (surinam grass; [2]) | Plant response rating, B. signalgrass (surinam grass; [7]) | B. signalgrass plant response rating (surinam grass; [8]) | Velvetleaf plant response rating (velvetleaf; [2]) | Wheat plant response rating (wheat; [6]) | Plant response rating, Wheat (wheat; [7]) | Nutsedge plant response rating (purple nutsedge; [2])
6: Crabgrass plant response rating (crabgrass; [4]) | Rape plant response rating (rape; [6]) | Wheat plant response rating (wheat; [5])
3: Plant response rating, Bedstraw (bedstraw; [7]) | B. signalgrass plant response rating (surinam grass; [6]) | Corn plant response rating (corn; [8]) | Crabgrass plant response rating (crabgrass; [6]) | Plant response rating, Sugarbeets (sugar beet; [7]) | Nutsedge plant response rating (purple nutsedge; [5]) | Rice plant response rating (rice; [11])
5: Blackgrass plant response rating (blackgrass; [4]) | Giant foxtail plant response rating (giant foxtail; [4]) | Rice plant response rating (rice; [12]) | Barnyardgrass plant response rating (bamyardgrass; [12])
4: Sugarbeets plant response rating (sugar beet; [2]) | Sugarbeets plant response rating (sugar beet; [6]) | Velvetleaf plant response rating (velvetleaf; [1]) | Velvetleaf plant response rating (velvetleaf; [6])
